Assay [1] concerns the target T1, SIRT1 (Homo sapiens, UniProt Q96EB6).
T1 sequence (Q96EB6 1-747): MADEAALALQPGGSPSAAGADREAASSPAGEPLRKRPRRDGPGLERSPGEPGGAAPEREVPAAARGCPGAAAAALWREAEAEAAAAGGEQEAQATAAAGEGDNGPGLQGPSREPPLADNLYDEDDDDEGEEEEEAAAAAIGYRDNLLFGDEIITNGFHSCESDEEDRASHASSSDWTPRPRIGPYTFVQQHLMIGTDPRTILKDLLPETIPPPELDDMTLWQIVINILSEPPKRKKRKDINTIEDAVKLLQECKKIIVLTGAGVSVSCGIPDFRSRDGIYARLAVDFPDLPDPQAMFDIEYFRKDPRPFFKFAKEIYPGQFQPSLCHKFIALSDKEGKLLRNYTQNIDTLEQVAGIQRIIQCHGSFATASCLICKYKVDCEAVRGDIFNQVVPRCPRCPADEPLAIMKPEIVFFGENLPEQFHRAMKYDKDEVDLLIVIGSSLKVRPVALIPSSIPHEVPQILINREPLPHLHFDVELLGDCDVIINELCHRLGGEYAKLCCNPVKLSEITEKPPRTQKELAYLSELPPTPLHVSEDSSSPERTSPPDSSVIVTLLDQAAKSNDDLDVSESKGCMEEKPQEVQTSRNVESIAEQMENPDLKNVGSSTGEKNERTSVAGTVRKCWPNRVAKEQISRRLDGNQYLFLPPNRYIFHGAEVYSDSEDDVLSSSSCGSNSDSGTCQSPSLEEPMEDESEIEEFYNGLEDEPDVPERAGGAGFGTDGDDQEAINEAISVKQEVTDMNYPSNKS
The experiment in a line: TAMRA based mass spectrometry assay of SIRT1 activity. Format: biochemical. The conditions noted are these: for Emax: read-out: TAMRA % Fold Act. The method in brief:
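Recombinant N-terminal His-tagged human SIRT1 (10 nM, E. coli) incubated 25 min at 25 °C with 0.5 μM 5TMR-labelled p53-derived acetyl-peptide and 120 μM βNAD+ in Tris-acetate pH 8 buffer with DTT and 0.05% BSA, compound at varying concentrations. Stopped with formic acid; deacetylated peptide or OAADPR measured by mass spectrometry relative to DMSO controls.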

The target in assay [2] is T1, SIRT1. The experiment in a line: Trp mass spectrometry assay of SIRT1 activity. In kind it is biochemical. The following applies: for Emax: read-out: Trp % Fold Act. The method in brief:
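His-tagged SIRT1 expressed in E. coli BL21(DE3), 10 nM, incubated 25 min at 25° C. with 0.5 μM Ac-RHKK(Ac)W-NH2 peptide and 120 μM βNAD+ in 50 mM HEPES pH 7.5, […], 1 mM DTT, 0.05% BSA; formic acid stop. OAADPR or deacetylated peptide measured by mass spectrometry; EC1.5 and percent maximum activation versus DMSO control.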

[3] abbreviates: TAMRA assay, concentration giving 150% activation of SIRT1.
The mark [4] stands for this setting: TAMRA assay, percent maximum fold activation.
[5] abbreviates: Trp assay, concentration giving 150% activation of SIRT1.
Where [6] appears, read: Trp assay, percent maximum fold activation.
Where [7] appears, read: TAMRA peptide substrate, concentration giving 150% activation of SIRT1.
Where [8] appears, read: TAMRA peptide substrate, percent maximum fold activation.
The mark [9] stands for this setting: Trp peptide substrate, concentration giving 150% activation of SIRT1.
The mark [10] stands for this setting: Trp peptide substrate, percent maximum fold activation.
Where [11] appears, read: concentration of test compound giving 150% activation of SIRT1, TAMRA peptide substrate.
Where [12] appears, read: percent maximum fold activation of SIRT1, TAMRA peptide substrate.
Where [13] appears, read: concentration of test compound giving 150% activation of SIRT1, Trp peptide substrate.
[14] abbreviates: percent maximum fold activation of SIRT1, Trp peptide substrate.

Regarding `Cc1cccnc1NC(=O)c1cnn2ccc(-c3ccccc3C(F)(F)F)nc12` [Compound 653], on SIRT1 [1] (setting [3]), the “TAMRA EC1.5 (μM)” value was “C (EC1.5>25 μM)”. In addition, the Emax on SIRT1 [1] (setting [4]) was less than 350%; at SIRT1 [2] (setting [6]) it was no less than 350%. In addition, the “Trp EC1.5 (μM)” value on SIRT1 [2] (setting [5]) is reported as “B (EC1.5 1-25 μM)”.

Regarding `Cc1nn2ccc(-c3ccccc3C(F)(F)F)nc2c1NC(=O)c1cccc(N2CCOCC2)n1` [Compound 574], at SIRT1 [1] (setting [7]), the “TAMRA EC1.5” value is listed as “A (EC1.5<1 μM)”. The Emax on SIRT1 [1] (setting [8]) was no less than 350%; at SIRT1 [2] (setting [10]) it was less than 350%. Further, at SIRT1 [2] (setting [9]), the “Trp EC1.5” value was “B (EC1.5 1-25 μM)”.

On to `O=C(Nc1cccc(N2CCOCC2)n1)c1cnc2ccc(-c3ccccc3F)nn12` [Compound 133], for which the “TAMRA EC1.5 (μM)” value on SIRT1 [1] (setting [11]) is on record as “A (EC1.5<1 μM)”. Besides, the results for the Emax on SIRT1 [1] (setting [12]) and at SIRT1 [2] (setting [14]) were no less than 350% and less than 350%, respectively. The “Trp EC1.5 (μM)” value at SIRT1 [2] (setting [13]) is reported as “A (EC1.5<1 μM)”.

On to `O=C(Nc1cnccn1)c1cnn2ccc(-c3ccccc3C(F)(F)F)nc12` [Compound 267], for which the “TAMRA EC1.5 (μM)” value on SIRT1 [1] (setting [3]) was “A (EC1.5<1 μM)”. For the same compound, the Emax on SIRT1 [1] (setting [4]) was no less than 350%; on SIRT1 [2] (setting [6]), less than 350%. The “Trp EC1.5 (μM)” value at SIRT1 [2] (setting [5]) is on record as “B (EC1.5 1-25 μM)”.

In the case of `Cc1nn2ccc(-c3ccccc3C(F)(F)F)nc2c1NC(=O)c1cnccn1` [Compound 571], on SIRT1 [1] (setting [7]), the “TAMRA EC1.5” value is on record as “C (EC1.5>25 μM)”. The Emax at SIRT1 [1] (setting [8]) and on SIRT1 [2] (setting [10]) was less than 350% in each case. Further, the “Trp EC1.5” value on SIRT1 [2] (setting [9]) is “B (EC1.5 1-25 μM)”.

For the compound `Cc1cnc(NC(=O)c2cnn3ccc(-c4ccccc4C(F)(F)F)nc23)s1` [Compound 507], the “TAMRA EC1.5” value at SIRT1 [1] (setting [7]) is listed as “A (EC1.5<1 μM)”. The Emax at SIRT1 [1] (setting [8]) is no less than 350%; at SIRT1 [2] (setting [10]) it was less than 350%. In addition, the “Trp EC1.5” value at SIRT1 [2] (setting [9]) was “B (EC1.5 1-25 μM)”.

As for `Cc1cc(C)nc(C(=O)Nc2cnn3ccc(-c4ccccc4OC(F)(F)F)nc23)n1` [Compound 736], the “TAMRA EC1.5 (μM)” value at SIRT1 [1] (setting [3]) was “A (EC1.5<1 μM)”. The Emax on SIRT1 [1] (setting [4]) was no less than 350%; at SIRT1 [2] (setting [6]) it was less than 350%. For the same compound, the “Trp EC1.5 (μM)” value on SIRT1 [2] (setting [5]) is “C (EC1.5>25 μM)”.

With `Cn1nccc1C(=O)Nc1cnc2ccc(-c3ccccc3C(F)(F)F)nn12` [Compound 93], the “TAMRA EC1.5 (μM)” value on SIRT1 [1] (setting [11]) was “C (EC1.5>25 μM)”. The Emax on SIRT1 [1] (setting [12]) and at SIRT1 [2] (setting [14]) was less than 350% in each case. Also, the “Trp EC1.5 (μM)” value at SIRT1 [2] (setting [13]) is reported as “C (EC1.5>25 μM)”.

For the compound `Cc1cc(-c2ccccc2C(F)(F)F)nn2c(C(=O)Nc3cccnc3)cnc12` [Compound 206], the “TAMRA EC1.5 (μM)” value at SIRT1 [1] (setting [3]) is recorded as “B (EC1.5 1-25 μM)”. In addition, the Emax at SIRT1 [1] (setting [4]) and at SIRT1 [2] (setting [6]) was no less than 350% throughout. The “Trp EC1.5 (μM)” value on SIRT1 [2] (setting [5]) is recorded as “B (EC1.5 1-25 μM)”.

Regarding `Cc1csc(NC(=O)c2c(C)nn3ccc(-c4ccccc4C(F)(F)F)nc23)n1` [Compound 650], the “TAMRA EC1.5 (μM)” value at SIRT1 [1] (setting [3]) was “A (EC1.5<1 μM)”. For the same compound, the Emax on SIRT1 [1] (setting [4]) and on SIRT1 [2] (setting [6]) was no less than 350% in each case. The “Trp EC1.5 (μM)” value at SIRT1 [2] (setting [5]) is “A (EC1.5<1 μM)”.

Turning to `Cc1cc(-c2ccccc2C(F)(F)F)nn2c(C(=O)Nc3cccc(N4CCOCC4)n3)cnc12` [Compound 192], the “TAMRA EC1.5 (μM)” value at SIRT1 [1] (setting [11]) is given as “A (EC1.5<1 μM)”. The Emax at SIRT1 [1] (setting [12]) and on SIRT1 [2] (setting [14]) was no less than 350% throughout. In addition, the “Trp EC1.5 (μM)” value at SIRT1 [2] (setting [13]) is “A (EC1.5<1 μM)”.

As for `O=C(Nc1ccc(F)cn1)c1cnn2ccc(-c3ccccc3OC(F)(F)F)nc12` [Compound 609], the “TAMRA EC1.5 (μM)” value on SIRT1 [1] (setting [3]) was “C (EC1.5>25 μM)”. For the same compound, the Emax on SIRT1 [1] (setting [4]) and on SIRT1 [2] (setting [6]) was less than 350% in each case. Besides, the “Trp EC1.5 (μM)” value at SIRT1 [2] (setting [5]) is recorded as “C (EC1.5>25 μM)”.

As for `Cc1nc2ccc(-c3ccccc3OC(F)(F)F)nn2c1C(=O)Nc1ccncn1` [Compound 469], the “TAMRA EC1.5” value at SIRT1 [1] (setting [7]) is listed as “A (EC1.5<1 μM)”. Further, the Emax at SIRT1 [1] (setting [8]) and at SIRT1 [2] (setting [10]) was no less than 350% throughout. On SIRT1 [2] (setting [9]), the “Trp EC1.5” value was “B (EC1.5 1-25 μM)”.

In the case of `Cc1nc2c(C)cc(-c3ccccc3C(F)(F)F)nn2c1NC(=O)c1cccc(O)n1` [Compound 590], the “TAMRA EC1.5” value on SIRT1 [1] (setting [7]) is “B (EC1.5 1-25 μM)”. In addition, the Emax on SIRT1 [1] (setting [8]) and at SIRT1 [2] (setting [10]) was less than 350% in each case. Further, on SIRT1 [2] (setting [9]), the “Trp EC1.5” value is recorded as “C (EC1.5>25 μM)”.

Values taken from patent US9957271B2, “Substituted bicyclic aza-heterocycles and analogues as sirtuin modulators” (GlaxoSmithKline, LLC, priority 2012, dated 2018).
